Earlier results, collected in patent US20240377378A1, “TRACER METHODS FOR THE DETERMINATION OF SORBENT CONTENT IN SOILS” (Regenesis Bioremediation Products, priority 2023, published 2024).

Assays:
[1] = under normal conditions (Congo Red: normal or ambient conditions)
[2] = 2012 OSHA Hazard Communication Standard
[3] = water

SMILES | pKa | Chemical Stability [1] | Serious eye damage/eye irritation hazard category [2] | acute oral toxicity hazard category [2] | Solubility [3] [mg/mL] | carcinogenicity hazard category [2] | reproductive toxicity hazard category [2] | Solubility (in words) [3] | Hazard Identification: criteria for hazardous classification [2]
CCN(CC)c1ccc2c(-c3ccccc3C(=O)O)c3ccc(=[N+](CC)CC)cc-3oc2c1.[Cl-] [Rhodamine B] | 3.1-3.22 | Stable under | (Category 1) | (Category 4), |  |  |  |  | 
Nc1c(/N=N/c2ccc(-c3ccc(/N=N/c4cc(S(=O)(=O)O)c5ccccc5c4N)cc3)cc2)cc(S(=O)(=O)O)c2ccccc12 [Congo Red] |  | Stable under |  |  | 25 to 116 | (Category 1B), | (Category 2) |  | 
O=S(=O)(O)c1cc(S(=O)(=O)O)c2c(/N=N/c3ccccc3)c(O)ccc2c1 [Orange G] | 11.5 | Stable under |  |  | 50 to 100 |  |  | soluble in water | Does not meet
